Numbers after ± are expanded uncertainties.

For this series the following is noted: 293.15 K; 101.33 kPa; Liquid; Vibrating tube method.

By mass density is commonly meant mass per unit of volume. For the molecule `NCCO` [2-aminoethan-1-ol], the mass density stood at 1017.9 ± 0.3 kg/m3.
Next, `CN(CCO)CCO` [N-methyldiethanolamine]: 1037.7 ± 0.3 kg/m3.
